From patent US7498343B2, “Mycobacterial inhibitors” (priority 2002, dated 2009)
≈ marks a conversion by molar mass, not a printed value. Read-outs that look alike come from different tables or passages of the source.

Key:
M. Smegmatis ATCC607 = assay: In-vitro method for testing compounds for anti-bacterial activity against strain M. smegmatis ATCC607 (Alamar Blue growth inhibition); format: cell-based; settings: pIC50 = -logIC50, IC50 in M, 50% inhibitory concentration for bacterial growth, 48 hours incubation; for IC50: Mycolicibacterium smegmatis, ATCC607, 48 h
Method: C.2. In-vitro Method for Testing Compounds for Anti-bacterial Activity Against Strain M. Smegmatis ATCC607. […] Subsequently, stock solutions (7.8×final test concentration) of compounds were added in 45 μl volumes to a series of duplicate wells in column 2 so as to allow evaluation of their effects on bacterial growth. Serial five-fold dilutions (45 μl in 180 μl) were made directly in the microtiter plates from column 2 to 11 using a customised robot system (Zymark Corp., Hopkinton, Mass.). Pipette tips were changed after every 3 dilutions to minimize pipetting errors with high hydrophobic compounds. Untreated control samples with (column 1) and without (column 12) inoculum were included in each microtiter plate. Approximately 250 CFU per well of bacteria inoculum, in a volume of 100 μl in 2.8×Mueller-Hinton broth medium, was added to the rows […]. The same volume of broth medium without inoculum was added to column 12 in row A to H. The cultures were incubated at 37° C. for 48 hours in a humidified 5% CO2 atmosphere (incubator with open air valve and continuous ventilation). At the end of incubation, two days after inoculation, the bacterial growth was quantitated fluorometrically. Therefore Alamar Blue (10×) was added to all wells in a volume of 20 μl and plates were incubated for another 2 hours at […] The fluorescence was read in a computer-controlled fluorometer (Cytofluor, Biosearch) at an excitation wavelength of 530 nm and an emission wavelength of 590 nm (gain 30). The % growth inhibition achieved by the compounds was calculated according to standard methods.

[1] = system: Mycobacterium tuberculosis (strain H37RV); assay: In-vitro method for testing compounds against M. tuberculosis (resazurin growth inhibition, MIC); format: cell-based; settings: MIC data representing IC90's, 7 days incubation, resazurin fluorescence
[2] = Mycobacterium tuberculosis, H37RV, 168 h, read-out: MIC

## CCN(CC)CCCC(O)(c1ccc2ccccc2c1)C(c1ccccc1)c1cc2cc(Br)ccc2nc1OC (single isomer, unassigned) [Compound 193]
M. Smegmatis ATCC607; M. smegmatis ATCC607
  pIC50: 5.6
[1]
  MIC: 9.47 microgram/ml

## CCOc1nc2ccc(Br)cc2cc1C(c1ccccc1)C(O)(CCN(C)C)c1ccccc1 (stereo not shown) [Compound 6]
M. Smegmatis ATCC607; M. smegmatis ATCC607
  pIC50: 5.8
[1]
  MIC: 8.23 microgram/ml

## COCCOc1nc2ccc(Br)cc2cc1C(c1ccccc1)C(O)(CCN(C)C)c1cccc2ccccc12 (single isomer, unassigned) [Compound 176]
M. Smegmatis ATCC607; M. smegmatis ATCC607
  pIC50: 6.8
[1]
  MIC: 9.50 microgram/ml

## COc1nc2ccc(Br)cc2cc1C(c1ccccc1)C(O)(CCN1CCCCC1)c1ccccc1 (stereo not shown) [Compound 47]
M. Smegmatis ATCC607; M. smegmatis ATCC607
  pIC50: 6.5
[1]; [2]
  MIC: 8.65 µg/mL (≈ 15.9 µM)

## CCN(CC)CCC(O)(c1ccccc1)C(c1ccccc1)c1cc2cc(Br)ccc2nc1OC (stereo not shown) [Compound 18]
M. Smegmatis ATCC607; M. smegmatis ATCC607, read-out: pIC50 (converted)
  IC50: 200 nM
[1]; [2]
  MIC: 10.6 µg/mL (≈ 19.9 µM)

## COc1nc2c(C)cc(Br)cc2cc1C(c1ccccc1)C(O)(CCN(C)C)c1cccc(F)c1 (single isomer, unassigned) [Compound 219]
M. Smegmatis ATCC607; M. smegmatis ATCC607
  pIC50: 5.8
[1]
  MIC: 42.69 microgram/ml

## COc1nc2ccc(Cl)cc2cc1C(c1ccccc1)C(O)(CCN(C)C)c1cccc2ccccc12 (single isomer, unassigned) [Compound 120]
M. Smegmatis ATCC607; M. smegmatis ATCC607
  pIC50: 5.9
[1]
  MIC: 40.60 microgram/ml

## COc1nc2ccc(Br)cc2cc1C(c1ccccc1)C(O)(CCN(C)C)c1ccsc1 (single isomer, unassigned) [Compound 24]
M. Smegmatis ATCC607; M. smegmatis ATCC607
  pIC50: 7.2
[1]
  MIC: 1.62 microgram/ml

## COc1nc2ccc(Cl)cc2cc1C(c1ccccc1)C(O)(CCN(C)C)c1ccccc1 (single isomer, unassigned) [Compound 30]
M. Smegmatis ATCC607; M. smegmatis ATCC607
  pIC50: 7.8
[1]
  MIC: 1.46 microgram/ml

## COc1nc2ccc(-c3ccccc3)cc2cc1C(c1ccccc1)C(O)(CCN(C)C)c1ccccc1 (single isomer, unassigned) [Compound 26]
M. Smegmatis ATCC607; M. smegmatis ATCC607
  pIC50: 7.2
[1]
  MIC: 1.00 microgram/ml

## COc1nc2ccc(Br)cc2cc1C(c1ccccc1)C(O)(CCCN1CCOCC1)c1ccc2ccccc2c1 (single isomer, unassigned) [Compound 198]
M. Smegmatis ATCC607; M. smegmatis ATCC607
  pIC50: 4.3
[1]
  MIC: 61.16 microgram/ml

## COc1nc2ccc(Br)cc2cc1C(c1ccccc1)C(O)(CCCCN(C)C)c1ccc2ccccc2c1 (single isomer, unassigned) [Compound 190]
M. Smegmatis ATCC607; M. smegmatis ATCC607
  pIC50: 6.5
[1]
  MIC: 1.85 microgram/ml

## COc1nc2ccc(Br)cc2cc1C(c1ccccc1)C(O)(CCc1ccccc1)CCN(C)C (racemic) [Compound 95]
M. Smegmatis ATCC607; M. smegmatis ATCC607
  pIC50: 6.9
[1]
  MIC: 16.87 microgram/ml

## COc1nc2ccc(Br)cc2cc1C(c1ccccc1)C(O)(CCCN(C)C)c1cccc2ccccc12 (single isomer, unassigned) [Compound 186]
M. Smegmatis ATCC607; M. smegmatis ATCC607
  pIC50: 4.5
[1]
  MIC: 56.96 microgram/ml

## COc1nc2ccc(Br)cc2cc1C(c1ccccc1)C(O)(CCN(C)C)c1ccccc1 (stereo not shown) [Compound 1]
M. Smegmatis ATCC607; M. smegmatis ATCC607
  pIC50: 7.3

## COc1nc2ccc(Br)cc2cc1C(c1ccccc1)C(O)(CCN1CCOCC1)c1ccc2ccccc2c1 (single isomer, unassigned) [Compound 139]
M. Smegmatis ATCC607; M. smegmatis ATCC607
  pIC50: 4.1
[1]
  MIC: 59.76 microgram/ml

## COc1nc2ccccc2cc1C(c1ccccc1)C(C)(O)CCN(C)C (single isomer, unassigned) [Compound 42]
M. Smegmatis ATCC607; M. smegmatis ATCC607
  pIC50: 6.3
[1]
  MIC: 44.34 microgram/ml

## COc1nc2ccc(Br)cc2cc1C(c1ccc(Cl)cc1)C(O)(CCN(C)C)c1ccccc1 (single isomer, unassigned) [Compound 36]
M. Smegmatis ATCC607; M. smegmatis ATCC607
  pIC50: 6.4
[1]
  MIC: 5.40 microgram/ml

## CN(C)CCC(O)(c1ccccc1)C(c1ccccc1)c1cc2cc(Br)ccc2nc1O (single isomer, unassigned) [Compound 60]
M. Smegmatis ATCC607; M. smegmatis ATCC607
  pIC50: 5.6

## COc1nc2ccc(F)cc2cc1C(c1ccccc1)C(O)(CCN(C)C)c1cc(F)cc(F)c1 (racemic) [Compound 207]
M. Smegmatis ATCC607; M. smegmatis ATCC607
  pIC50: 5.2
[1]
  MIC: 48.05 microgram/ml

## COc1nc2ccc(-c3ccccc3)cc2cc1C(c1ccccc1)C(O)(CCN(C)C)c1cccc2ccccc12 (racemic) [Compound 85]
M. Smegmatis ATCC607; M. smegmatis ATCC607
  pIC50: 5.9
[1]
  MIC: 8.76 microgram/ml

## COc1nc2ccc(F)cc2cc1C(c1ccccc1)C(O)(CCN(C)C)c1ccccc1 (single isomer, unassigned) [Compound 28]
M. Smegmatis ATCC607; M. smegmatis ATCC607
  pIC50: 7.3
[1]
  MIC: 1.41 microgram/ml

## COCCOc1nc2ccc(Br)cc2cc1C(c1ccccc1)C(O)(CCN(C)C)c1cccc(F)c1 (single isomer, unassigned) [Compound 164]
M. Smegmatis ATCC607; M. smegmatis ATCC607
  pIC50: 7.9
[1]
  MIC: 0.36 microgram/ml

## CCN(C)CCC(O)(c1cccc2ccccc12)C(c1ccccc1)c1cc2cc(Br)ccc2nc1OC (stereo not shown) [Compound 148]
M. Smegmatis ATCC607; M. smegmatis ATCC607
  pIC50: 4.9
[1]
  MIC: 56.96 microgram/ml

## COc1nc2ccc(Br)cc2cc1C(c1ccc(F)cc1)C(O)(CCN(C)C)c1cccc2ccccc12 (racemic) [Compound 206]
M. Smegmatis ATCC607; M. smegmatis ATCC607
  pIC50: 6.5
[1]
  MIC: 9.09 microgram/ml

## COc1ccc2nc(OC)c(C(c3ccccc3)C(O)(CCN(C)C)c3cccc(F)c3)cc2c1 (single isomer, unassigned) [Compound 135]
M. Smegmatis ATCC607; M. smegmatis ATCC607
  pIC50: 7.4
[1]
  MIC: 1.50 microgram/ml

## COc1nc2ccc(Br)cc2cc1C(c1ccccc1)C(O)(CCN(C)C)c1ccc2c(Br)cccc2c1 (single isomer, unassigned) [Compound 130]
M. Smegmatis ATCC607; M. smegmatis ATCC607
  pIC50: 5.3
[1]
  MIC: 50.32 microgram/ml

## COc1nc2ccc(Br)cc2cc1C(c1ccccc1)C(O)(CCN1CCCCC1)c1cccc2ccccc12 (stereo not shown) [Compound 146]
M. Smegmatis ATCC607; M. smegmatis ATCC607
  pIC50: 4.8
[1]
  MIC: 59.56 microgram/ml

## COc1nc2ccc(Br)cc2cc1C(c1ccccc1)C(O)(CCCN1CCOCC1)c1cccc2ccccc12 (single isomer, unassigned) [Compound 210]
M. Smegmatis ATCC607; M. smegmatis ATCC607
  pIC50: 6.1
[1]
  MIC: 61.16 microgram/ml

## COc1nc2ccc(Br)cc2cc1C(c1ccccc1)C(O)(CCN(C)C)c1cccc2ccccc12 (stereo not shown) [Compound 13]
M. Smegmatis ATCC607; read-out: pIC50, M. smegmatis ATCC607 (converted)
  IC50: 200 nM
[1]
  MIC: 44.13 microgram/ml

## COc1nc2cc(C)c(Br)cc2cc1C(c1ccccc1)C(O)(CCN(C)C)c1cccc(F)c1 (single isomer, unassigned) [Compound 216]
M. Smegmatis ATCC607; M. smegmatis ATCC607
  pIC50: 8.0
[1]
  MIC: 0.85 microgram/ml

## COc1nc2ccc(Br)cc2cc1C(c1ccccc1)C(O)(CCN1CCN(C)CC1)c1cc(Br)cc2ccccc12 (single isomer, unassigned) [Compound 151]
M. Smegmatis ATCC607; M. smegmatis ATCC607
  pIC50: 5.0
[1]
  MIC: 13.76 microgram/ml

## CN(C)CCC(O)(c1ccccc1)C(c1ccccc1)c1cc2cc(Br)ccc2n2ccnc12 (single isomer, unassigned) [Compound 104]
M. Smegmatis ATCC607; M. smegmatis ATCC607
  pIC50: 6.6

## COc1nc2ccc(Br)cc2cc1C(c1ccccc1)C(O)(CCN1CCN(c2ncccn2)CC1)c1ccc2ccccc2c1 (single isomer, unassigned) [Compound 209]
[1]
  MIC: 67.47 microgram/ml

## COc1nc2ccc(Br)cc2cc1C(c1ccccc1)C(O)(CCN(C)C)c1cccc(F)c1 (stereo not shown) [Compound 108]
M. Smegmatis ATCC607; M. smegmatis ATCC607
  pIC50: 7.0

## CN(C)CCC(O)(c1ccccc1)C(c1ccccc1)c1cc2cc(Br)ccc2nc1O (single isomer, unassigned) [Compound 59]
M. Smegmatis ATCC607; M. smegmatis ATCC607
  pIC50: 5.1

## COc1nc2ccc(Br)cc2cc1C(c1ccccc1)C(O)(CCN(C)C)c1ccccc1 (stereo not shown) [Compound 4]
M. Smegmatis ATCC607; M. smegmatis ATCC607
  pIC50: 5.7

## COc1nc2ccc(Br)cc2cc1C(c1ccccc1)C(O)(CCCN1CCOCC1)c1ccc2ccccc2c1 (single isomer, unassigned) [Compound 161]
[1]
  MIC: 61.16 microgram/ml

## COc1nc2ccc(Br)cc2cc1C(c1ccccc1)C(O)(CCN1CCCCC1)c1ccc2ccccc2c1 (stereo not shown) [Compound 128]
[1]
  MIC: 59.56 microgram/ml

## CN(C)CCC(O)(c1ccccc1)C(c1ccccc1)c1cc2cc(Br)ccc2n2ccnc12 (single isomer, unassigned) [Compound 105]
M. Smegmatis ATCC607; M. smegmatis ATCC607
  pIC50: 6.0

## COc1nc2ccc(Br)cc2cc1C(c1ccccc1)C(O)(CCN(C)C)c1ccccc1 (stereo not shown) [Compound 2]
M. Smegmatis ATCC607; M. smegmatis ATCC607
  pIC50: 6.8

## COc1nc2ccc(Br)cc2cc1C(c1ccccc1)C(O)(CCN(C)C)c1cc(F)ccc1F (stereo not shown) [Compound 68]
M. Smegmatis ATCC607; M. smegmatis ATCC607
  pIC50: 6.4

## COc1nc2ccc(Br)cc2cc1C(c1ccccc1)C(O)(CCN1CCN(C)CC1)c1ccccc1 (racemic) [Compound 51]
M. Smegmatis ATCC607; M. smegmatis ATCC607
  pIC50: 5.8

## COc1nc2ccc(Br)cc2cc1C(c1ccccc1)C(O)(CCN(C)C)c1ccccc1 (stereo not shown) [Compound 3]
M. Smegmatis ATCC607; M. smegmatis ATCC607
  pIC50: 6.7

## COc1nc2ccc(Br)cc2cc1C(c1ccccc1)C(O)(CCn1ccnc1)c1cccc2ccccc12 (single isomer, unassigned) [Compound 187]
[1]
  MIC: 57.85 microgram/ml

## COc1nc2ccc(Br)cc2cc1C(c1ccccc1)C(O)(CCN1CCOCC1)c1ccc2cc(Br)ccc2c1 (single isomer, unassigned) [Compound 177]
[1]
  MIC: 67.65 microgram/ml
